For assay [1], the target named is T1, Human immunodeficiency virus type 1 protease (Human immunodeficiency virus 1, UniProt Q72874). As to the kind of experiment: Binding affinity for human immunodeficiency virus type 1 protease.
Assay [2] concerns MT4. As to the kind of experiment: Effective dose of compound required to inhibit replication of human immunodeficiency virus type 1 in MT-4 cells. It is filed as functional. To be noted: read-out: ED50 (the source's name).
Assay [3] deals with Human immunodeficiency virus type 1 protease (Human immunodeficiency virus 1) (UniProt Q72874).
Description: Association rate constant for human immunodeficiency virus type 1 protease
In assay [4] the target is T1, Human immunodeficiency virus type 1 protease. As to the kind of experiment: Inhibition constant for human immunodeficiency virus type 1 protease.
The target in assay [5] is Human immunodeficiency virus type 1 protease (Human immunodeficiency virus 1) (UniProt Q72874). This is another data set of the same source.
Description: Dissociation rate constant for human immunodeficiency virus type 1 protease

Some results are limits rather than exact numbers.

As for `CC(C)[C@H](C)C(=O)NC(=O)[C@H]([O-])[C@H](O)[C@@H](O)[C@@H](Oc1ccc(C2=CC=[S+]C2)cc1)C(=O)NC(=O)[C@@H](C)C(C)C`, the Kd in assay [1] was 3.04 nM. The EC50 in assay [2] turned out to be 40 nM. For the same compound, the k on in assay [3] was 348000 M⁻¹ s⁻¹. In assay [4], this compound registered a Ki of 1.2 nM. In assay [5], this compound returned a k off of 0.000432 s⁻¹.
The matching figures for `COC(=O)/C=C/c1ccc(O[C@@H](C(=O)NC(=O)[C@@H](C)C(C)C)[C@H](O)[C@@H](O)[C@@H](O)C(=O)NC(=O)[C@@H](C)C(C)C)cc1`: 1.95 nM, 2580 nM, 204000 M⁻¹ s⁻¹, 0.09 nM and 0.000365 s⁻¹.
The matching figures for `CC(C)[C@H](C)C(=O)NC(=O)[C@H](O)[C@H](O)[C@@H](O)[C@@H](Oc1ccc(-c2cccc([N+](=O)[O-])c2)cc1)C(=O)NC(=O)[C@@H](C)C(C)C`: 18.2 nM, 160 nM, 181000 M⁻¹ s⁻¹, 1.4 nM and 0.000817 s⁻¹.
Regarding `Cc1cccc(C)c1OCC(=O)N[C@@H](Cc1ccccc1)[C@@H](O)C[C@H](Cc1ccccc1)NC(=O)[C@H](C(C)C)N1CCCNC1=O` [LOPINAVIR], the EC50 in assay [2] turned out to be 10 nM. In addition, the k on in assay [3] is 6.63e+06 M⁻¹ s⁻¹. The compound further returned a k off in assay [5] of 0.000654 s⁻¹.
As to `CC(C)[C@H](C)C(=O)NC(=O)[C@H](O)[C@H](O)[C@@H](O)[C@@H](Oc1ccc(-c2nccs2)cc1)C(=O)NC(=O)[C@@H](C)C(C)C`, the affinity in assay [1], expressed as Kd, was 0.64 nM. The EC50 in assay [2] is 240 nM. The compound further gave a k on in assay [3] of 477000 M⁻¹ s⁻¹. Moreover, affinity in assay [4] was put at a Ki of 0.55 nM. The k off in assay [5] was 0.000303 s⁻¹.
The matching figures for `CC(C)[C@H](C)C(=O)NC(=O)[C@H](O)[C@H](O)[C@@H](O)[C@@H](Oc1ccc(-c2ccccn2)cc1)C(=O)NC(=O)[C@@H](C)C(C)C`: 1.18 nM, 640 nM, 323000 M⁻¹ s⁻¹, 0.61 nM and 0.000373 s⁻¹.
The matching figures for `CC(C)[C@H](C)C(=O)NC(=O)[C@H](O)[C@H](O)[C@@H](O)[C@@H](Oc1ccc(CCc2ccccc2)cc1)C(=O)NC(=O)[C@@H](C)C(C)C`: 34.2 nM, 2050 nM, 81100 M⁻¹ s⁻¹, 0.8 nM and 0.00163 s⁻¹.
For `CC(C)[C@H](C)C(=O)NC(=O)[C@H](O)[C@H](O)[C@@H](O)[C@@H](Oc1ccc(C2=C(O)C(=O)CCC2)cc1)C(=O)NC(=O)[C@@H](C)C(C)C` the same measures were 17.5 nM, 5600 nM, 29300 M⁻¹ s⁻¹, 0.3 nM and 0.000487 s⁻¹.
As to `O=S1(=O)N(Cc2ccc(CO)cc2)[C@H](COc2ccccc2)[C@H](O)[C@@H](O)[C@@H](COc2ccccc2)N1Cc1ccc(CO)cc1`, in assay [2], the EC50 is 1550 nM. The k off in assay [5] amounted to 0.0273 s⁻¹.
The compound `CC(C)CN(C[C@@H](O)[C@H](Cc1ccccc1)NC(=O)O[C@H]1CCOC1)S(=O)(=O)c1ccc(N)cc1` gave a Kd in assay [1] of 1.1 nM. In addition, the EC50 in assay [2] turned out to be 80 nM. For the same compound, the k on in assay [3] worked out at 4.43e+06 M⁻¹ s⁻¹. The compound also showed a Ki in assay [4] of 0.23 nM. The same compound showed a k off in assay [5] of 0.00488 s⁻¹.
Consider `CC(C)(C)NC(=O)c1ccccc1NC[C@@H](O)[C@H](Cc1ccccc1)NC(=O)[C@H](CC(N)=O)NC(=O)OCc1ccccc1`, for which the EC50 in assay [2] came to 3310 nM.
Take `CC(C)[C@H](C)C(=O)NC(=O)[C@H](O)[C@H](O)[C@@H](O)[C@@H](Oc1ccc(Br)cc1)C(=O)NC(=O)[C@@H](C)C(C)C`: in assay [1], binding was put at a Kd of 21.1 nM. Further, the EC50 in assay [2] stood at 650 nM. Also, in assay [4], affinity was put at a Ki of 0.3 nM. Further, the k off in assay [5] came out at 0.00169 s⁻¹.
With `Cc1c(O)cccc1C(=O)N[C@@H](CSc1ccccc1)[C@H](O)CN1C[C@H]2CCCC[C@H]2C[C@H]1C(=O)NC(C)(C)C`, the EC50 in assay [2] was 20 nM.
`CCO[C@@H](C(=O)NC(=O)[C@@H](C)C(C)C)[C@H](O)[C@@H](O)[C@@H](O)C(=O)NC(=O)[C@@H](C)C(C)C` returned a Kd in assay [1] of 38400 nM. The EC50 in assay [2] is more than 192000 nM. This compound also yielded a k on in assay [3] of 134 M⁻¹ s⁻¹. In addition, the k off in assay [5] came to 0.00485 s⁻¹.
For `CC(C)[C@H](C)C(=O)NC(=O)[C@H](O)[C@H](O)[C@@H](O)[C@@H](Oc1ccccc1)C(=O)NC(=O)[C@@H](C)C(C)C`, in assay [1], the Kd is 10.8 nM. The EC50 in assay [2] was found to be 1320 nM. The compound further showed a k on in assay [3] of 355000 M⁻¹ s⁻¹. In assay [4], this compound had a Ki of 0.4 nM. This compound showed a k off in assay [5] of 0.00367 s⁻¹.
`CC(C)(C)NC(=O)[C@@H]1CN(Cc2cccnc2)CCN1C[C@@H](O)C[C@@H](Cc1ccccc1)C(=O)N[C@H]1c2ccccc2C[C@H]1O`: the EC50 in assay [2] amounted to 50 nM.
Regarding `CC(C)[C@H](C)C(=O)NC(=O)[C@H](O)[C@@H](O)[C@H](O)[C@@H](Oc1ccccc1)C(=O)NC(=O)[C@@H](C)C(C)C`, the dissociation constant Kd in assay [1] came to 2990 nM. The EC50 in assay [2] was determined as 22900 nM. Further, the k on in assay [3] amounted to 9200 M⁻¹ s⁻¹. The compound also had a Ki in assay [4] of 40 nM. The k off in assay [5] came to 0.02 s⁻¹.
As for `CC(C)(C)NC(=O)[C@@H]1C[C@@H]2CCCC[C@@H]2CN1C[C@@H](O)[C@H](Cc1ccccc1)NC(=O)[C@H](CC(N)=O)NC(=O)c1ccc2ccccc2n1`, in assay [2], the EC50 was determined as 10 nM.
Turning to `COC(=O)N[C@H](C(=O)N[C@@H](Cc1ccccc1)[C@@H](O)CN(Cc1ccc(-c2ccccn2)cc1)NC(=O)[C@@H](NC(=O)OC)C(C)(C)C)C(C)(C)C` [ATAZANAVIR], the Kd in assay [1] came out at 0.4 nM. Also, in assay [2], the EC50 was determined as 6 nM. The same compound gave a k on in assay [3] of 1.67e+06 M⁻¹ s⁻¹. The compound further had a Ki in assay [4] of 0.24 nM. The compound further returned a k off in assay [5] of 0.00069 s⁻¹.
The matching figures for `C[C@@H](Cc1ccc(O)cc1)C(=O)NC(=O)[C@H](O)[C@H](O)[C@@H](O)[C@@H](Oc1ccccc1)C(=O)NC(=O)[C@@H](C)Cc1ccc(O)cc1`: 309000 nM, more than 67000 nM, 172 M⁻¹ s⁻¹, 5000 nM and 0.06 s⁻¹.
For `CC(C)(C)NC(=O)c1ccccc1NC[C@H](O)[C@H](Cc1ccccc1)NC(=O)[C@H](CC(N)=O)NC(=O)c1ccc2ccccc2n1`, the EC50 in assay [2] stood at 10100 nM.
On the same count and under the same terms, under `CC(C)c1nc(CN(C)C(=O)N[C@H](C(=O)N[C@@H](Cc2ccccc2)C[C@H](O)[C@H](Cc2ccccc2)NC(=O)OCc2cncs2)C(C)C)cs1` [RITONAVIR] stands 50 nM.
For the compound `CC(C)[C@H](C)C(=O)NC(=O)[C@H](O)[C@H](O)[C@@H](O)[C@@H](Oc1ccccc1)C(=O)NC1c2ccccc2C[C@@H]1O` (stereo partly drawn), in assay [1], binding was characterised by a dissociation constant (Kd) of 4.42 nM. Besides, the EC50 in assay [2] was 120 nM. Also, in assay [3], the k on worked out at 5.97e+06 M⁻¹ s⁻¹. In addition, the affinity in assay [4], expressed as Ki, was 0.05 nM. This compound gave a k off in assay [5] of 0.02 s⁻¹.
As to `O=C(NC1c2ccccc2C[C@H]1O)[C@H](O)C[C@@H](O)[C@@H](Oc1ccccc1)C(=O)NC1c2ccccc2C[C@@H]1O` (stereo partly drawn), the equilibrium dissociation constant (Kd) in assay [1] was 35.8 nM. Besides, the EC50 in assay [2] amounted to 1440 nM. Besides, the k on in assay [3] came to 666000 M⁻¹ s⁻¹. Also, in assay [5], the k off worked out at 0.02 s⁻¹.
The compound `Cc1cc(NS(=O)(=O)c2ccc(N)cc2)no1` [SULFAMETHOXAZOLE] returned a Kd in assay [1] of 577 nM. Moreover, in assay [2], the EC50 is more than 79000 nM. The compound further yielded a k on in assay [3] of 188000 M⁻¹ s⁻¹. The affinity in assay [4] corresponds to a Ki of 10.1 nM. This compound also registered a k off in assay [5] of 0.06 s⁻¹.
The compound `O=C(NC1c2ccccc2C[C@@H]1O)[C@H](O)[C@H](O)[C@@H](O)[C@@H](Oc1ccccc1)C(=O)NC1c2ccccc2C[C@@H]1O` (stereo partly drawn) came in with a Kd in assay [1] of 13.9 nM. The EC50 in assay [2] was 100 nM. The same compound had a k on in assay [3] of 6.39e+06 M⁻¹ s⁻¹. In assay [4], this compound yielded a Ki of 0.6 nM. For the same compound, the k off in assay [5] came out at 0.01 s⁻¹.
For `CC(NO)c1cccc(CN2[C@H](COc3ccccc3)[C@H](O)[C@@H](O)[C@@H](COc3ccccc3)N(Cc3cccc(C(C)NO)c3)S2(=O)=O)c1` (stereo partly drawn) the same measures were 169 nM, 2900 nM, 512000 M⁻¹ s⁻¹, 5.6 nM and 0.04 s⁻¹.

The values are drawn from ChEMBL document CHEMBL1138847, “Improved structure-activity relationship analysis of HIV-1 protease inhibitors using interaction kinetic data” (J Med Chem, 2004).
